From patent publication US20110152091A1, “Herbicidal Compositions Comprising Flufenacet” (BAYER CROPSCIENCE AG, priority 2009, published 2011)

What was measured:
Type in all cases: in vivo
[1] = system: Poa annua (POAAN); experiment: Greenhouse trial: PE soil application vs incorporation into the soil (test methods 1, 3 and 4); settings: g of AS/ha: A 75, B 60, C 70, mixture 75 + 60 + 70
Method: (§1) In the standard design of the test, seeds of various broad-leaved weed and weed grass biotypes (origins) were sown in a 8-13 cm diameter pot filled with natural soil of a standard field soil (loamy silt; non-sterile) and covered with a covering soil layer of about 1 cm. The pots were then cultivated in a greenhouse (12-16 h of light, temperature day 20-22° C., night 15-18° C.) until the time of application. The pots were treated on a laboratory track sprayer with spray liquors comprising the compositions according to the invention, mixtures of the prior art or components used individually. Application of the active compounds or active compound combinations formulated as WG, WP, EC or otherwise was carried out at the appropriate growth stages of the plants. The application rate for the spray application was 100-600 l of water/ha. After the treatment, the plants were returned to the greenhouses.
(§2) About 3 weeks after the application, the soil action or/and foliar action was assessed visually according to a scale of 0-100% in comparison to an untreated comparative group: 0%=no noticeable effect compared to the untreated comparative group; 100%=full effect compared to the untreated comparative group.
(§3) (notes: the term “seeds” also includes vegetative propagation forms such as, for example, rhizome pieces; abbreviations used: h light=hours of illumination, g of AS/ha=gram of active substance per hectare, l/ha=liter per hectare, S=sensitive, R=resistant) • 1. Pre-emergence action against weeds: seeds of various broad-leaved weed and weed grass biotypes (origins) were sown in a 8-13 cm diameter pot filled with natural soil of a standard field soil (loamy silt; non-sterile) and covered with a covering soil layer of about 1 cm. The pots were then cultivated in a greenhouse (12-16 h of light, temperature day 20-22° C., night 15-18° C.) until the time of application. The pots were treated at the BBCH stage 00-10 of the seeds/plants on a laboratory track sprayer with spray liquors comprising the compositions according to the invention, mixtures or components used individually, as WG, WP, EC or other formulations. The application rate for the spray application was 100-600 l of water/ha. After the treatment, the plants were returned to the greenhouses and, when required, treated with fertilizer and watered. • 2. Post-emergence action against weeds: seeds of various broad-leaved weed and weed grass biotypes (origins) were sown in a 8-13 cm diameter pot filled with natural soil of a standard field soil (loamy silt; non-sterile) and covered with a covering soil layer of about 1 cm. The pots were then cultivated in a greenhouse (12-16 h of light, temperature day 20-22° C., night 15-18° C.) until the time of application. The pots were treated at various BBCH stages between 11-25 of the seeds/plants, i.e. generally between two to three weeks after the start of the cultivation, on a laboratory track sprayer with spray liquors comprising the compositions according to the invention, mixtures or components used individually, as WG, WP, EC or other formulations. The application rate for the spray application was 100-600 l of water/ha. After the treatment, the plants were returned to the greenhouses and, when required, treated with fertilizer and watered. • 3. Pre-emergence action against weeds with and without incorporation of active compound: seeds of various broad-leaved weed and weed grass biotypes (origins) were sown in a 8-13 cm diameter pot filled with natural soil of a standard field soil (loamy silt; non-sterile). […]

[2] = system: Stellaria media (STEME); experiment: as above; settings: g of AS/ha: A 75, B 60, C 70, mixture 75 + 60 + 70
Method: as §1, §2, §3

[3] = system: Triticum aestivum, winter wheat (TRZAW); experiment: Greenhouse trial: PE soil application vs incorporation into the soil, crop plant (test methods 1, 3 and 4); settings: g of AS/ha: A 75, B 60, C 70, mixture 75 + 60 + 70
Method: as §1, §2, §3

[4] = system: Apera Spica-venti (APESV); experiment: Greenhouse trial: PO application (test methods 2 and 5); settings: g of AS/ha: A 240, B 120, C 140, mixture 240 + 120 + 140
Method: as §1
as §2, with “group. […]” for “group.”

[5] = system: Hordeum vulgare, summer barley (HORVS); experiment: Greenhouse trial: PO application, crop plant (test methods 2 and 5); settings: g of AS/ha: A 240, B 120, C 140, mixture 240 + 120 + 140
Method: as §1, §2
(notes: the term “seeds” also includes vegetative propagation forms such as, for example, rhizome pieces; abbreviations used: h light=hours of illumination, g of AS/ha=gram of active substance per hectare, l/ha=liter per hectare, S=sensitive, R=resistant) • 1. Pre-emergence action against weeds: seeds of various broad-leaved weed and weed grass biotypes (origins) were sown in a 8-13 cm diameter pot filled with natural soil of a standard field soil (loamy silt; non-sterile) and covered with a covering soil layer of about 1 cm. The pots were then cultivated in a greenhouse (12-16 h of light, temperature day 20-22° C., night 15-18° C.) until the time of application. […]

[6] = system: Avena fatua (AVEFA); experiment: Greenhouse trial: pre-sowing method vs PE application (test method 6); settings: g of AS/ha: A 90, B 90, C 140, mixture 90 + 90 + 140
Method: as §1, §2, §3

[7] = system: Lolium perenne (LOLPE); experiment: as above; settings: g of AS/ha: A 90, B 90, C 140, mixture 90 + 90 + 140
Method: as §1, §2, §3

[8] = system: Triticum aestivum, winter wheat (TRZAW); experiment: Greenhouse trial: pre-sowing method vs PE application, crop plant (test method 6); settings: g of AS/ha: A 90, B 90, C 140, mixture 90 + 90 + 140
Method: as §1, §2, §3

[9] = system: Matricaria chamomilla (MATCH); experiment: Greenhouse trial: different soil types (test method 7); settings: g of AS/ha: A 90, B 90, C 140, mixture 90 + 90 + 140
Method: as §1, §2, §3

[10] = system: Stellaria media (STEME); experiment: as above; settings: g of AS/ha: A 90, B 90, C 140, mixture 90 + 90 + 140
Method: as §1, §2, §3

[11] = system: Hordeum vulgare, summer barley (HORVS); experiment: Greenhouse trial: different soil types, crop plant (test method 7); settings: g of AS/ha: A 90, B 90, C 140, mixture 90 + 90 + 140
Method: as §1, §2, §3

[12] = system: Hordeum vulgare, summer barley (HORVS); experiment: Greenhouse trial: different sowing depths on PE application, crop plant (test method 9); settings: g of AS/ha: A 90, B 90, C 140, mixture 90 + 90 + 140; for activity HORVS 5 mm (visual, scale 0-100%): Sowing depth 5 mm; for activity HORVS 20 mm (visual, scale 0-100%): Sowing depth 20 mm
Method: as §1, §2, §3

[13] = system: Hordeum vulgare, summer barley (HORVS); experiment: Greenhouse trial: different soil pH values on PE application, crop plant (test method 11); settings: for activity HORVS pH 7.4 (visual, scale 0-100%): soil pH 7.4, g of AS/ha: A 90, B 90, C 140, mixture 90 + 90 + 140; for activity HORVS pH 8.4 (visual, scale 0-100%): soil pH 8.4, g of AS/ha: A 90, B 90, C 140, mixture 90 + 90 + 140
Method: as §1, §2, §3

[14] = system: Avena fatua (AVEFA); experiment: Greenhouse trial: different soil pH values on PE application (test method 11); settings: for activity AVEFA pH 7.4 (visual, scale 0-100%): soil pH 7.4, g of AS/ha: A 90, B 90, C 140, mixture 90 + 90 + 140; for activity AVEFA pH 8.4 (visual, scale 0-100%): soil pH 8.4, g of AS/ha: A 90, B 90, C 140, mixture 90 + 90 + 140
Method: as §1, §2, §3

[15] = system: Lolium species (LOLSS), sensitive and resistant biotypes; experiment: Greenhouse trial: resistant biotypes following PE application (test method 8); settings: g of AS/ha: A 90, B 90, C 140, mixture 90 + 90 + 140, iodosulfuron 10
Method: as §1
as §2, with “group. […]” for “group.”

[16] = system: Matricaria chamomilla (MATCH); experiment: Greenhouse trial: different sowing depths on PE application (test method 9); settings: g of AS/ha: A 90, B 90, C 140, mixture 90 + 90 + 140
Method: as §1
as §2, with “group. […]” for “group.”

[17] = Application 7 days prior to sowing

| SMILES | activity POAAN (visual, scale 0-100%) ([1]; Incorporation into the soil) [%] | activity POAAN (visual, scale 0-100%) ([1]; PE application) [%] | activity STEME (visual, scale 0-100%) ([2]; PE application) [%] | activity TRZAW (visual, scale 0-100%) ([3]; Incorporation into the soil) [%] | activity TRZAW (visual, scale 0-100%) ([3]; PE application) [%] | activity APESV (visual, scale 0-100%) [4] [%] | activity HORVS (visual, scale 0-100%) [5] [%] | activity LOLPE (visual, scale 0-100%) ([7]; PE application) [%] | activity TRZAW (visual, scale 0-100%) [8, 17] [%] | activity TRZAW (visual, scale 0-100%) ([8]; PE application) [%] | activity STEME IU soil (visual, scale 0-100%) [10] [%] | activity STEME IU/EC73 soil (visual, scale 0-100%) [10] [%] | activity HORVS IU soil (visual, scale 0-100%) [11] [%] | activity HORVS IU/EC73 soil (visual, scale 0-100%) [11] [%] | activity HORVS 5 mm (visual, scale 0-100%) [12] [%] | activity HORVS 20 mm (visual, scale 0-100%) [12] [%] | activity HORVS pH 7.4 (visual, scale 0-100%) [13] [%] | activity HORVS pH 8.4 (visual, scale 0-100%) [13] [%] | activity AVEFA pH 7.4 (visual, scale 0-100%) [14] [%] | activity AVEFA pH 8.4 (visual, scale 0-100%) [14] [%] | also measured |
| --- | --- | --- | --- | --- | --- | --- | --- | --- | --- | --- | --- | --- | --- | --- | --- | --- | --- | --- | --- | --- | --- |
| CC(C)N(C(=O)COc1nnc(C(F)(F)F)s1)c1ccc(F)cc1 [(A) flufenacet, N-(4-fluorophenyl)-N-(1-methylethyl)-2-[[5-(trifluoromethyl)-1,3,4-thiadiazol-2-yl]oxy]acetamide] | 90 | 65 | 0 | 60 | 20 | 65 | 60 | 90 | 60 | 30 | 0 | 0 | 10 | 0 | 30 | 20 | 10 | 10 | 80 | 55 | activity AVEFA (visual, scale 0-100%) ([6]; PE application): 80%; activity MATCH IU soil (visual, scale 0-100%) [9]: 28% |
| O=C(Nc1ccc(F)cc1F)c1cccnc1Oc1cccc(C(F)(F)F)c1 [(B) diflufenican, N-(2,4-difluorophenyl)-2-[3-(trifluoromethyl)phenoxy]-3-pyridinecarboxamide] | 75 |  |  | 20 | 10 |  | 5 | 60 | 10 | 10 | 95 | 38 | 0 | 0 | 30 | 5 | 0 | 0 | 0 | 30 | activity LOLPE (visual, scale 0-100%) [7, 17]: 0% |
| CSc1nnc(C(C)(C)C)c(=O)n1N [(C) metribuzin, 4-amino-6-(1,1-dimethylethyl)-3-(methylthio)-1,2,4-triazin-5(4H)-one] | 15 | 0 | 75 | 55 | 30 | 79 | 70 | 50 | 0 | 55 | 75 | 5 | 0 | 0 | 70 | 30 | 40 | 50 | 90 | 90 | activity STEME (visual, scale 0-100%) ([2]; Incorporation into the soil): 0%; activity AVEFA (visual, scale 0-100%) [6, 17]: 0%; activity AVEFA (visual, scale 0-100%) ([6]; PE application): 10%; activity LOLPE (visual, scale 0-100%) [7, 17]: 10%; activity MATCH IU soil (visual, scale 0-100%) [9]: 0%; activity MATCH IU/EC73 soil (visual, scale 0-100%) ([9]; IU/EC73 soil): 15%; activity LOLSS resistant (visual, scale 0-100%) ([15]; resistant biotype): 70%; activity LOLSS sensitive (visual, scale 0-100%) ([15]; sensitive biotype): 70%; activity MATCH 5 mm (visual, scale 0-100%) ([16]; Sowing depth 5 mm): 100%; activity MATCH 20 mm (visual, scale 0-100%) ([16]; Sowing depth 20 mm): 70% |
